Where two headings read alike, the source gives them in different places.
Tests used:
[1] = Oral tolerance (calcemic liability) by body weight in hairless mice; set-up: species or system hairless mice (Moro hr/hr); conditions: mouse, in vivo, oral gavage in arachis oil, daily for 4 days, read-out: HTDp.o. (highest tolerated oral dose without weight loss)
Protocol: (§1) Orally administered vitamin D analogues can lead to epidermal thickening (acanthosis) in hairless mice. […] Compounds of formula I were tested for 4 days at different dosages in order to detect compounds which show this epidermal effect at subtoxic and non-toxic doses (dosage leading to slight or no weight loss). […] The calcitriol data were obtained from animals treated for three days.
(§2) Hairless mice (Moro hr/hr) received daily administrations of the test compound in arachis oil by gavage for 4 days, using 2-5 different dosages (3 fold increments; 2 animals per dosage group). The mice were sacrificed at day 5 and skin biopsies were taken, fixed in formalin and treated for histological evaluation. The epidermal thickness was measured at standard magnification using an occular grid. Daily measurements of body weight allows to judge toxicity (calcemic liability) and determine the non-toxic dose level defined as the dose which is tolerated without weight loss.
HTDp.o.: highest tolerated oral dose (μg/kg) without weight loss

normal mouse skin [2] = assay: Activity assay hyperproliferative disorders: epidermal thickening (acanthosis) in hairless mice, oral; type: in vivo, hairless mice (Moro hr/hr); conditions: for ED50: Mus musculus, read-out: ED50 (dose causing halfmaximal epidermal thickening)
Protocol: Activity Assay Hyperproliferative Disorders
as §1, §2
ED50 : dose (μg/kg) causing halfmaximal epidermal thickening
TI shift: shift in "therapeutic index", is defined as ratio ED50 /HT
for calcitriol divided by the ratio ED50 /HTP for the test compound

normal mouse skin [3] = conditions: known antipsoriatics; cited from earlier work
[4] = 96 h, oral gavage in arachis oil, daily for 4 days

| SMILES | MTD [1] [mg/kg] | ED50 (normal mouse skin [2]; [4]) [mg/kg] | ratio ED50/HTD (normal mouse skin [2]; oral, 4 days) | epidermal thickening effect on normal mouse skin, in words (normal mouse skin [3]) | skin effect (epidermal thickening) on 4 days dosing, in words (normal mouse skin [2]; 4 days) | ED50 (normal mouse skin [2]; 72 h, oral, calcitriol treated for three days) [mg/kg] | ratio ED50/HTD (normal mouse skin [2]; oral, calcitriol treated for three days) |
| --- | --- | --- | --- | --- | --- | --- | --- |
| CC(C#Cc1ccccc1C(C)(C)O)[C@H]1CC[C@H]2/C(=C/C=C3C[C@@H](O)C[C@H](O)C3)CCC[C@]12C (stereo partly drawn) [Example 6, (7E)-(1R,3R)-23-[2-(1-Hydroxy-1-methyl-ethyl)-phenyl]-19,24-dinor-9,10-seco-chola-5,7-dien-22-yne-1,3-diol] | 0.04 | 2.5 | 63 | – | – | – | – |
| C=C1/C(=C\C=C2/CCC[C@]3(C)[C@@H]([C@H](C)CCCC(C)(C)O)CC[C@@H]23)C[C@@H](O)C[C@@H]1O [calcitriol, 1,25-dihydroxycholecalciferol, reference compound] | – | – | – | show this effect on normal mouse skin | could not be dosed for 4 days high enough to obtain this skin effect | 0.5 | 500 |
| C=C1/C(=C\C=C2/CCC[C@]3(C)[C@@H]([C@@H](C)C#Cc4cccc(C(C)(C)O)c4)CC[C@@H]23)C[C@@H](O)C[C@@H]1O [Example 14, (5Z,7E)-(1S,3R,20R)-23-[3-(1-Hydroxy-1-methyl-ethyl)-phenyl)-24-nor-9,10seco-chola-5,7,10(19)-trien-22-yne-1,3-diol] | 1 | 7 | 7 | – | – | – | – |
| C=C1/C(=C\C=C2/CCC[C@]3(C)[C@@H]([C@@H](C)C#Cc4ccccc4C(C)(C)O)CC[C@@H]23)C[C@@H](O)C[C@@H]1O [Example 16, (5Z,7E)-(1S,3R,20R)-23-[2-(1-Hydroxy-1-methyl-ethyl)-phenyl)-24-nor-9,10-seco-chola-5,7,10(19)-trien-22-yne-1,3-diol] | 2 | 10 | 5 | – | – | – | – |
